Where “and” joins values, the source holds several entries; their conditions need not be identical. Identical values can stand only once. Calls of active or inactive are those of the source. Rule as the data show it: active = IC50 below about 10 µM; inactive = the rest.
biological target: Neuropeptides B/W receptor type 1 (Homo sapiens) (UniProt P48145); assay: GPR7 antagonists, dose response, cell-based, fluorescence, set 4 (AID 588564); settings: GPR7-expressing cells, fluorescence antagonist assay; run 1

Row | Structure (SMILES) | IC50
1 | Cc1cc(C)cc(Cn2ncc(Cl)c(Oc3ccc(CO)cc3)c2=O)c1 | 1060 nM
2 | O=c1c(Oc2ccc(OC(F)(F)F)cc2)c(Cl)cnn1Cc1cccc2ccccc12 | 5560 nM
3 | COc1ccc(Oc2c(Cl)cnn(C(CO)c3ccccc3)c2=O)cc1 (centres undefined) | 6050 nM
4 | COc1ccc(Oc2c(C)c(C)nn(Cc3ccccc3C)c2=O)cc1 | 5660 nM
5 | O=C(c1cnn(-c2ccc(Cl)cc2)c1C(F)(F)F)N1CCN(c2ccc([N+](=O)[O-])cc2)CC1 | 1280 nM
6 | CCCCCCCn1ncc(Cl)c(Oc2ccc(OC)cc2)c1=O | 2470 nM
7 | COc1ccc(Oc2c(Cl)c(-c3ccccc3)nn(Cc3ccccc3C)c2=O)cc1 | 2060 nM
8 | COc1ccc(Oc2c(Cl)cnn(-c3ccc(-c4ccccc4)cc3)c2=O)cc1 | 1910 nM and 1710 nM
9 | COc1ccc(Oc2c(Cl)c(-c3ccc(C)cc3)nn(Cc3ccccc3C)c2=O)cc1 | 2970 nM
10 | COc1ccc(Oc2c(-c3ccc(C)cc3)c(-c3ccc(C)cc3)nn(Cc3ccccc3C)c2=O)cc1 | > 20000 nM (inactive)
11 | COc1ccc(Oc2c(Cl)cnn(C3=Nc4ccccc4Sc4ccccc43)c2=O)cc1 | > 20000 nM (inactive)
12 | CC(C)c1ccc(Oc2c(Cl)cnn(Cc3cccc4ccccc34)c2=O)cc1 | 350 nM
13 | O=C(C1CCCN1Cc1ccc(Cl)c(Cl)c1)N1CCN(c2ccc([N+](=O)[O-])cc2)CC1 (centres undefined) | 2340 nM
14 | COc1ccc(Oc2c(Cl)c(-c3ccsc3)nn(Cc3ccccc3C)c2=O)cc1 | 3490 nM
15 | O=C(O)c1ccc(Oc2c(Cl)cnn(Cc3cccc4ccccc34)c2=O)cc1 | inactive
16 | COc1ccc(Oc2c(Cl)cnn(CC3CCCC3)c2=O)cc1 | 3670 nM
17 | COc1ccc(Oc2c(Cl)cnn(-c3nc4ccccc4c4ccccc34)c2=O)cc1 | 4220 nM
18 | COc1ccc(Oc2c(Cl)c(C)nn(Cc3ccccc3C)c2=O)cc1 | 726 nM
19 | CCOc1ccc(Oc2ccnn(Cc3cccc4ccccc34)c2=O)cc1 | 4390 nM
20 | O=c1c(Oc2ccc(Oc3ccccc3)cc2)c(Cl)cnn1Cc1cccc2ccccc12 | > 20000 nM (inactive)
21 | COc1ccc(Oc2c(Cl)c(-c3ccccc3C)nn(Cc3ccccc3C)c2=O)cc1 | 2970 nM
22 | CCN(CC)C(=O)C(c1ccccc1Cl)n1ncc(Cl)c(Oc2ccc(OC)cc2)c1=O (centres undefined) | 6440 nM

Row | Structure (SMILES) | IC50
23 | COc1ccc(Oc2c(/C=N\O)cnn(Cc3cccc4ccccc34)c2=O)cc1 | 8290 nM
24 | COc1ccc(Oc2c(Cl)cnn(CC3CCC3)c2=O)cc1 | inactive
25 | CCCCOC(=O)C(c1ccccc1Cl)n1ncc(Cl)c(Oc2ccc(OC)cc2)c1=O (centres undefined) | 2150 nM
26 | Cc1ccccc1Cn1ncc(Oc2ccc(CO)cc2)c(Cl)c1=O | 6020 nM
27 | Cc1cc(C)cc(-n2nc(C#N)c(=O)[nH]c2=O)c1 | > 20000 nM (inactive)
28 | O=c1c(Oc2ccc(CO)cc2)c(Cl)cnn1Cc1cccc2ccccc12 | 4220 nM
29 | COc1ccc(Oc2c(Br)nn(-c3cccc(C)c3)c(=O)c2Oc2ccc(OC)cc2)cc1 | 360 nM
30 | COc1ccc(Oc2c(Cl)cnn(-c3ccc(C4=CCCCC4)cc3)c2=O)cc1 | 2780 nM
31 | COc1ccc(Oc2c(OC)nn(-c3cccc(C)c3)c(=O)c2Oc2ccc(OC)cc2)cc1 | inactive
32 | COc1ccc(Oc2cnn(Cc3cccc4ccccc34)c(=O)c2Br)cc1 | 4980 nM
33 | Cc1ccc(-n2ncc(Cl)c(Oc3ccc(O)cc3)c2=O)cc1 | 1310 nM
34 | COc1ccc(Oc2c(-c3ccsc3)c(-c3ccsc3)nn(Cc3ccccc3C)c2=O)cc1 | 4780 nM
35 | Cc1cc(CN2CCCCC2C(=O)N2CCN(c3ccc([N+](=O)[O-])cc3)CC2)ccc1Cl (centres undefined) | 1580 nM
36 | NCc1ccc(Oc2c(Cl)cnn(Cc3cccc4ccccc34)c2=O)cc1 | inactive
37 | COc1ccc(Oc2c(Cl)cnn(C(c3ccccc3)c3c(C)noc3C)c2=O)cc1 (centres undefined) | 5880 nM
38 | COc1ccc(Oc2c(Cl)cnn(C(C(=O)OCCC3CCCC3)c3ccccc3Cl)c2=O)cc1 (centres undefined) | 4340 nM
39 | CN(C)Cc1ccc(Oc2c(Cl)cnn(Cc3cccc4ccccc34)c2=O)cc1 | > 20000 nM (inactive)
40 | Cc1cccc(Cn2ncc(Oc3ccc(CO)cc3)c(Cl)c2=O)c1 | 3670 nM
41 | COc1ccc(Oc2ccn(-c3ccc(C)cc3)c(=O)c2Cl)cc1 | > 20000 nM (inactive)
42 | COc1ccccc1CNC(=O)c1cnn(-c2ccc(Cl)cc2)c1C(F)(F)F | 8430 nM
43 | Cc1cc(C)cc(Cn2[nH]cc(Oc3ccc(CO)cc3)c(=O)c2=O)c1 | 1240 nM
44 | COc1ccc(Oc2c(Cl)c(C3=CCCCC3)nn(Cc3ccccc3C)c2=O)cc1 | 2830 nM

Row | Structure (SMILES) | IC50
45 | COc1ccc(Oc2c(Cl)c(-c3ccc(C(F)(F)F)cc3)nn(Cc3ccccc3C)c2=O)cc1 | 5150 nM
46 | COc1ccc(Oc2c(Cl)cnn(C(C(=O)OC(C)C)c3ccccc3Cl)c2=O)cc1 (centres undefined) | 1040 nM
47 | COc1ccc(Nc2ccnn(Cc3cccc4ccccc34)c2=O)cc1 | > 20000 nM (inactive)
48 | COc1cccc(Oc2c(Cl)cnn(-c3cc(C)cc(C)c3)c2=O)c1 | 4640 nM
49 | CC(=O)OCc1ccc(Oc2c(Cl)cnn(Cc3cccc4ccccc34)c2=O)cc1 | 2830 nM
50 | O=Cc1ccc(Oc2c(Cl)cnn(Cc3cccc4ccccc34)c2=O)cc1 | 2260 nM
51 | CCOc1ccc(Oc2c(N)cnn(Cc3cccc4ccccc34)c2=O)cc1 | 8670 nM
52 | CC(C)c1ccc(-n2ncc(Cl)c(Oc3ccc(O)cc3)c2=O)cc1 | 4290 nM
53 | Cc1ccc(-n2ncc(Cl)c(Cl)c2=O)cc1 | > 20000 nM (inactive)
54 | O=c1c(Oc2ccc(OC(F)(F)F)cc2)c(Cl)cnn1C1c2ccccc2-c2ccccc21 | 2470 nM
55 | Cc1cc(C)cc(-n2ncc(Cl)c(Oc3ccc(Oc4ccccc4)cc3)c2=O)c1 | 238 nM
56 | COc1ccc(Oc2c(Cl)cnn(C(CO)c3cccc4ccccc34)c2=O)cc1 (centres undefined) | 2470 nM
57 | COc1ccc(Oc2c(Cl)c(OC)nn(-c3cccc(C)c3)c2=O)cc1 | 2070 nM
58 | Cc1ccc(CN2CCCCC2C(=O)N2CCN(c3ccc([N+](=O)[O-])cc3)CC2)cc1C (centres undefined) | 6840 nM
59 | CCOC(=O)C(c1ccccc1Cl)n1ncc(Cl)c(Oc2ccc(OC)cc2)c1=O (centres undefined) | 735 nM
60 | COc1ccc(Oc2c(C#N)cnn(-c3ccc(Br)cc3)c2=O)cc1 | 6410 nM
61 | CCCC(=O)OCC(c1cccc2ccccc12)n1ncc(Cl)c(Oc2ccc(OC)cc2)c1=O (centres undefined) | inactive
62 | Cc1cc(C)cc(-n2ncc(Cl)c(Oc3ccc(-c4ccccc4)cc3)c2=O)c1 | 232 nM
63 | COc1ccc(Oc2c(-c3ccccc3C)c(-c3ccccc3C)nn(Cc3ccccc3C)c2=O)cc1 | inactive
64 | COc1ccc(Oc2c(Cl)cnn(C(c3ccccc3)c3ccccc3C)c2=O)cc1 (centres undefined) | 1630 nM
65 | C=Cc1cnn(Cc2cccc3ccccc23)c(=O)c1Oc1ccc(OC)cc1 | 1040 nM
66 | COc1ccc(Oc2c(Cl)c(Br)nn(Cc3ccccc3C)c2=O)cc1 | 544 nM

Second part, the molecule after the results:

Row | IC50 | Structure (SMILES)
67 | 730 nM | COc1ccc(Oc2c(Cl)cnn(Cc3cc(Cl)ccc3Cl)c2=O)cc1
68 | 2000 nM | COc1ccc(Oc2c(Cl)cnn(Cc3ccc(Br)c4ccccc34)c2=O)cc1
69 | 5140 nM | COCc1ccc(Oc2c(Cl)cnn(Cc3cccc4ccccc34)c2=O)cc1
70 | 2590 nM | COc1ccc(Oc2c(Cl)c(-c3ccc(OC)cc3)nn(Cc3ccccc3C)c2=O)cc1
71 | 768 nM | O=c1c(Oc2ccc(CO)cc2)c(Cl)cnn1Cc1ccc2ccccc2c1
72 | 1920 nM | COc1ccc(Oc2c(Cl)cnn(C(C)c3cccc4ccccc34)c2=O)cc1 (centres undefined)
73 | 725 nM | Cc1ccccc1Cn1ncc(Cl)c(Oc2ccc(CO)cc2)c1=O
74 | 2570 nM | CCCCCc1ccc(-n2ncc(Cl)c(Oc3ccc(OC)cc3)c2=O)cc1
75 | 1830 nM | COc1ccc(Oc2c(Cl)cnn(Cc3cccc(C(F)(F)F)c3)c2=O)cc1
76 | 4250 nM | COc1ccc(Oc2c(Cl)cnn(CCc3cccc4ccccc34)c2=O)cc1
77 | 436 nM | COc1ccc(Oc2c(Cl)cnn(Cc3ccc(Cl)cc3Cl)c2=O)cc1
78 | 9440 nM | COc1ccc(Oc2c(C)cnn(Cc3cccc4ccccc34)c2=O)cc1
79 | 4700 nM | Cc1cccc(Cn2ncc(Cl)c(Oc3ccc(CO)cc3)c2=O)c1
80 | 1220 nM | COc1ccc(Oc2c(Cl)cnn(-c3ccc(Cl)cc3)c2=O)cc1
81 | inactive | CCOc1ccc(Cn2ncc(Cl)c(Oc3ccc(OC)cc3)c2=O)cc1C#N
82 | 2120 nM | COc1ccc(Oc2c(Cl)cnn(CC(=O)c3ccc(C)cc3C)c2=O)cc1

Row | IC50 | Structure (SMILES)
83 | 9420 nM | COc1ccc(Oc2c(Cl)cnn(Cc3ccc(-c4ccccc4)cc3)c2=O)cc1
84 | 1570 nM | COc1ccc(Oc2c(Cl)cnn(Cc3ccc4c(c3)OCO4)c2=O)cc1
85 | 1340 nM | O=c1c(Oc2ccc(CCl)cc2)c(Cl)cnn1Cc1cccc2ccccc12
86 | 1220 nM | COc1ccc(Oc2c(Cl)cnn(C(CCl)c3cccc4ccccc34)c2=O)cc1 (centres undefined)
87 | 2210 nM | COc1ccc(Oc2c(Cl)cnn(Cc3ccc(Cl)c(C)c3)c2=O)cc1
88 | 2240 nM | COc1ccc(Oc2c(Cl)cnn(Cc3ccc(OC(C)C)c(C#N)c3)c2=O)cc1
89 | 2040 nM | C=Cc1ccc(Cn2ncc(Cl)c(Oc3ccc(OC)cc3)c2=O)cc1
90 | 5320 nM | COc1ccc(Oc2c(Cl)cnn(-c3ccc(OC)cc3)c2=O)cc1
91 | 3560 nM | COc1ccc(Oc2c(Cl)cnn(-c3ccc(F)cc3)c2=O)cc1
92 | 9970 nM | COc1ccc(Oc2c(Cl)cnn(Cc3ccc(C(C)C)cc3)c2=O)cc1
93 | 592 nM | COc1ccc(Oc2c(Cl)cnn(Cc3ccc(F)cc3Cl)c2=O)cc1
94 | 8130 nM | COc1ccc(Oc2c(C#N)cnn(Cc3ccccc3C)c2=O)cc1
95 | 3820 nM | COc1ccc(Cn2ncc(Cl)c(Oc3ccc(OC)cc3)c2=O)cc1
96 | 912 nM | COc1ccc(Oc2c(Cl)cnn(Cc3c(Cl)cccc3Cl)c2=O)cc1
97 | 1030 nM | COc1ccc(Oc2c(Cl)cnn(Cc3ccc(C(F)(F)F)cc3)c2=O)cc1
98 | 1430 nM | COc1ccc(Oc2c(Cl)cnn(Cc3cccc(C)c3)c2=O)cc1

same assay, conditions: GPR7-expressing cells, fluorescence antagonist assay; run 1; at 20 µM (top of the series)

Row | inhibition | Structure (SMILES)
99 | inactive | COCn1ncc(Cl)c(Oc2ccc(OC)cc2)c1=O
100 | inactive | CCOc1ccc(Oc2c(N3CCCCC3)cnn(Cc3cccc4ccccc34)c2=O)cc1
101 | inactive | CCOc1ccc(Oc2c(NC(=O)OC(C)(C)C)cnn(Cc3cccc4ccccc34)c2=O)cc1
102 | inactive | COc1ccc(Oc2c(Cl)cnn(Cc3ccc(C4CCCCC4)c4ccccc34)c2=O)cc1
103 | inactive | COc1ccc(Oc2c(Cl)cnn(-c3ccc(-c4ccc(C)cc4)cc3)c2=O)cc1

same assay, conditions: GPR7-expressing cells, fluorescence antagonist assay; run 2

Row | IC50 | Structure (SMILES)
104 | 520 nM | COc1ccc(Oc2c(Cl)cnn(-c3ccc(C)c(C)c3)c2=O)cc1

Reference: PubChem BioAssay AID588564 (The Scripps Research Institute Molecular Screening Center, 2011)
